# Legend:
# [1] = test system: serotonin 3 (5--HT3) receptor; assay: Effect on Von Bezold-Jarisch reflex in rats (serotonin 3 receptor antagonist activity); format: in vivo, rat; settings: male Wistar or SD rats, anesthetized; test compound 1 μg/kg i.v. 3 minutes before 2-methylserotonin (10-30 μg/kg i.v.)
# Description: Effect on Von Bezold-Jarisch reflex in rats
# (Serotonin 3 receptor antagonist activity)
# The test was carried out substantially by the method of Fozard et al. [cf. Arch. Pharmacology, 326, 36-44 (1984)]. Male Wistar rats weighing 250-350 g or male SD rats weighing 300-400 g were anesthetized with urethane (1.5 g/kg, interraperitoneal) and placed on their back. An electrocardiogram (lead II) and a heart rate on the animals were recorded on an inkwriting oscillograph via a biophysical amplifier and a pulse rate tachomether, respectively. […] After stable responses were obtained following repeated administration of 2-methylserotonin at 15-minute intervals, the test compound (1 μg/kg) was administered intravenously 3 minutes before administration of 2-methylserotonin. The inhibition rate of the test compound was calculated as follows. [formula]
# [2] = test system: cisplatin-induced vomiting in ferrets; assay: Effect on cisplatin-induced vomiting in ferrets; format: in vivo, ferret; settings: male ferrets; 0.03 mg/kg i.v. twice (30 minutes before and 45 minutes after cisplatin 10 mg/kg); emetic episodes for 3 hours
# Description: Effect on cisplatin-induced vomiting in ferrets and acute toxicity in mice
# Male ferrets (Marshall Lab., U.S.A.) weighing approximately 1 kg were used. For intravenous injection, a cannule was implanted in the cervical vein under pentobarbital anethesia. The experiments were started 3 and 4 days after the operation. Saline (2 ml/kg) as a control group and a dose (0.03 mg/kg) of a test compound as a treated group were administered twice, i.e., 30 minutes before and 45 minutes after administratin of 10 mg/kg of cisplatin (Sigma, U.S.A) dissolved in saline (3 ml/kg). The number of emetic episodes for 3 hours after administration of cisplatin was recorded, and the inhibition rate of the test compound was calculated as follows. [formula]
# All test compounds were administered intravenously.
# [3] = test system: mice; assay: Acute toxicity in mice; format: in vivo, mouse; settings: male Std-ddY mice; 100 mg/kg i.p.; mortality observed for 7 days
# Description: An acute toxicity test was performed using male Std-ddY mice weighing 25-30 g. Test compounds dissolved or suspended in 0.5 % tragacanth solution were administered intraperitoneally.
SMILES,Inhibition rate (%) of Von Bezold-Jarisch reflex [1] [%],"Inhibition of emetic episodes in ferrets, inhibition rate (%) [2] [%]",Acute toxicity in mice (number of dead animals/number of animals used) [3]
CCCCn1nc(C(=O)NC2CN(C)CCN(Cc3ccccc3)C2)c2ccccc21 (stereo not shown) [Example 46],70,,
CN1CCN(Cc2cccc(F)c2)CC(NC(=O)c2n[nH]c3ccccc23)C1 (stereo not shown) [Example 7],84,,
"Cc1cccc(CN2CCN(C)CC(NC(=O)c3n[nH]c4ccccc34)C2)c1 (stereo not shown) [Example 1(a), N-[1-(3-methylbenzyl)4-methylhexahydro-1H-1,4-diazepin-6-yl]-1H-indazole-3-carboxamide]",82,89,1/5
"CN1CCN(Cc2ccccc2)CC(NC(=O)c2nn(C)c3ccccc23)C1 (stereo not shown) [Example 33, N-(1-benzyl-4-methylhexahydro-1H-1,4-diazepin-6-yl)-1-methyl-1H-indazole-3-carboxamide]",96,44,2/5
CN1CCN(Cc2cc(F)cc(F)c2)CC(NC(=O)c2n[nH]c3ccccc23)C1 (stereo not shown) [Example 23],86,,
CN1CCN(Cc2ccc(Br)cc2)CC(NC(=O)c2n[nH]c3ccccc23)C1 (stereo not shown) [Example 10],82,,
"CC1CN(Cc2ccccc2)CC(NC(=O)c2n[nH]c3ccccc23)CN1C (single isomer, unassigned) [Example 67, N-(1-benzyl-3,4-dimethylhexahydro-1H-1,4-diazepin-6-yl)-1H -indazole-3-carboxamide]",72,,
"CC1CN(C)CC(NC(=O)c2n[nH]c3ccccc23)CN1Cc1ccccc1 (single isomer, unassigned) [Example 69, N-(1-benzyl-2,4-dimethylhexahydro-1H-1,4-diazepin-6-yl)-1H -indazole-3-carboxamide]",90,,
CN1CCN(Cc2ccccc2F)CC(NC(=O)c2n[nH]c3ccccc23)C1 (stereo not shown) [Example 6],75,,
C=CCn1nc(C(=O)NC2CN(C)CCN(Cc3ccccc3)C2)c2ccccc21 (stereo not shown) [Example 48],79,,
"Cc1cccc(CN2CCN(C)CC(NC(=O)c3n[nH]c4ccccc34)C2)c1 (stereo not shown) [1(b), N-[1-(3-methylbenzyl)4-methylhexahydro-1H-1,4-diazepin-6-yl]-1H-indazole-3-carboxamide]",83,,
COc1ccc(CN2CCN(C)CC(NC(=O)c3n[nH]c4ccccc34)C2)cc1 (stereo not shown) [Example 5],78,,
"CN1CCN(Cc2ccccc2)CC(NC(=O)c2n[nH]c3ccccc23)C1 (stereo not shown) [Example 32, N-(1-benzyl-4-methylhexahydro-1H-1,4-diazepin-6-yl)-1H-indazole-3-carboxamide]",,62,0/5
"CN1CCN(Cc2ccccc2C#N)CC(NC(=O)c2n[nH]c3ccccc23)C1 (stereo not shown) [Example 11, N-[1-(2-cyanobenzyl)-4-methylhexahydro-1H-1,4-diazepin-6-yl]-1H-indazole-3-carboxamide]",95,,
CN1CCN(Cc2ccncc2)CC(NC(=O)c2n[nH]c3ccccc23)C1 (stereo not shown) [Example 17],91,62,1/5
Cc1ccc(CN2CCN(C)CC(NC(=O)c3n[nH]c4ccccc34)C2)cc1 (stereo not shown) [Example 3],92,,
"CN1CCN(Cc2cccnc2)CC(NC(=O)c2n[nH]c3ccccc23)C1 (stereo not shown) [Example 16, N-[1-(3-pyridylmethyl)-4-methylhexahydro-1H-1,4-diazepin-6-yl]-1H-indazole-3-carboxamide]",85,82,0/5
CN1CCN(Cc2ccc(C#N)cc2)CC(NC(=O)c2n[nH]c3ccccc23)C1 (stereo not shown) [Example 13],83,,
"CC(=O)n1nc(C(=O)NC2CN(C)CCN(Cc3ccccc3)C2)c2ccccc21 (stereo not shown) [Example 52, N-(1-benzyl-4-methylhexahydro-1H-1,4-diazepin-6-yl)-1-acetyl-1H-indazole-3-carboxamide]",89,,
"CCC(=O)n1nc(C(=O)NC2CN(C)CCN(Cc3ccccc3)C2)c2ccccc21 (stereo not shown) [Example 53, N-(1-benzyl-4-methylhexahydro-1H-1,4-diazepin-6-yl)-1-propionyl-1H-indazole-3-carboxamide]",83,29,1/5
CN1CCN(Cc2ccc(F)cc2)CC(NC(=O)c2n[nH]c3ccccc23)C1 (stereo not shown) [Example 8],77,71,0/5
